Assay results from patent US6461997B1, “Triazole sulfones having herbicidal activity” (Monsanto Technology LLC, priority 1999, dated 2002).

Columns and labels:
[1] = system: PANMI (wild proso millet); assay: Pre-plant incorporated (PPI) herbicidal activity, warm season; type: in vivo, Panicum miliaceum; conditions: for PPI activity GR80, PANMI: pre-plant incorporated, lowest tested rate with 80% or greater inhibition, about 14 days
Method: (§1) In another set of tests, the pre-plant incorporated (PPI) activity of compounds of this invention was evaluated on the same species as for the pre-emergence tests described above. In the PPI tests the following procedure, designed to simulate PPI application, was used.
(§2) A pre-prepared topsoil mixture (described above) was placed in a pot and compacted to a depth of 1.0 to 1.25 cm from the top of the pot. Seeds of each of several monocotyledonous and dicotyledonous annual plant species were placed on top of the soil. A sufficient quantity of soil to cover the seeds and level fill the pot was weighed into an open container. A known amount of the test compound was dissolved or suspended in an organic solvent and applied by spraying to this cover soil. The cover soil was thoroughly mixed to distribute the test compound throughout the cover soil, and was then applied as a cover layer over the seeds. Untreated soil was used as a cover layer for control pots. After treatment the plants were placed in a greenhouse where they received 0.64 cm of overhead irrigation. All subsequent watering consisted of a light overhead mist and/or subirrigation as needed for germination and growth. Tables 9 and 10 below relate to warm season plant species which were placed after pre-emergence treatment in a greenhouse with a 30/21° C. day/night temperature regime. Tables 11 and 12 below relates to cool season plant species placed after pre-emergence treatment in a greenhouse or growth chamber with an 18/13° C. day/night temperature regime. Only the compounds of Examples 1, 6, 8, 11, 13 and 15-20 were included in PPI tests.
(§3) Approximately 14 days after planting and treating, the plants were observed and herbicidal efficacy recorded as percent inhibition by comparison with untreated plants.

AMARE (redroot pigweed) = assay: Pre-emergence herbicidal activity, warm season; type: in vivo, Amaranthus retroflexus
Method in brief: (§4)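 GR80 values derive from percent inhibition relative to untreated plants, read roughly 14 days after sowing and pre-emergence soil-surface treatment (compound in 50:50 acetone/water; rates typically 10, 30, 100, 300 g/ha). Warm-season weeds grew at 30/21° C day/night, cool-season ones at 18/13° C; an asterisk marks activity without reaching 80% at the highest rate.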

ECHCG (barnyardgrass) = assay: Pre-emergence herbicidal activity, warm season; type: in vivo, Echinochloa crus-galli; conditions: for Pre-emergence activity (GR80) ECHCG: GR80 = lowest tested rate (300, 100, 30, 10 g/ha) with 80% or greater inhibition, approx. 14 days after treating, 30/21° C.
Method in brief: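 Seeds sown in sterilised fertilised topsoil received surface-applied compound in 50:50 acetone/water, typically at 300, 100, 30 and 10 g/ha, then greenhouse-grown at 30/21° C (warm-season species) or 18/13° C (cool-season species). Percent inhibition versus untreated plants was scored at about 14 days, giving GR80; an asterisk marks activity short of 80% at the top rate.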

POROL (common purslane) [2] = assay: Pre-plant incorporated (PPI) herbicidal activity, warm season; type: in vivo, Portulaca oleracea; conditions: GR80 = lowest tested rate with 80% or greater inhibition, approx. 14 days after treating, 30/21° C.
Method: as §1, §2, §3

POROL (common purslane) [3] = assay: Pre-emergence herbicidal activity, warm season; type: in vivo, Portulaca oleracea; conditions: GR80 = lowest tested rate (300, 100, 30, 10 g/ha) with 80% or greater inhibition; approx. 14 days after treating; 30/21° C.
Method in brief: as §4

SOLNI (black nightshade) [4] = assay: Pre-plant incorporated (PPI) herbicidal activity, warm season; type: in vivo, Solanum nigrum; conditions: for PPI activity (GR80) SOLNI: pre-plant incorporated, GR80 = lowest tested rate with 80% or greater inhibition, approx. 14 days after treating, 30/21° C.
Method: as §1, §2, §3

[5] = system: CHEAL (common lambsquarters); assay: as above; type: in vivo, Chenopodium album; conditions: pre-plant incorporated; GR80 = lowest tested rate with 80% or greater inhibition; approx. 14 days after treating; 30/21° C.
Method: as §1, §2, §3

SOLNI (black nightshade) [6] = assay: Pre-emergence herbicidal activity, warm season; type: in vivo, Solanum nigrum; conditions: for Pre-emergence activity (GR80) SOLNI: GR80 = lowest tested rate (300, 100, 30, 10 g/ha) with 80% or greater inhibition, approx. 14 days after treating, 30/21° C.
Method in brief: as §4

[7] = system: CIRAR (canada thistle (seedling)); assay: Pre-plant incorporated (PPI) herbicidal activity, warm season; type: in vivo, Cirsium arvense; conditions: GR80 = lowest tested rate with 80% or greater inhibition, approx. 14 days after treating, 30/21° C.
Method: as §1, §2, §3

[8] = system: GALAP (catchweed bedstraw); assay: Pre-emergence herbicidal activity, cool season; type: in vivo, Galium aparine; conditions: lowest tested rate with 80% or greater inhibition; rates 300, 100, 30, 10 g/ha; about 14 days
Method in brief: as §4

oilseed rape (BRSNS) = assay: Selectivity test, PPI, cool season crop; type: in vivo, Brassica napus; conditions: PPI application
Method: as §2, §3
Additional pre-emergence and PPI tests were conducted by the procedures described above, on warm and cool season weed species in the presence of crop species, to assess herbicidal selectivity. Crop species included in warm season tests were corn (Zea mays, ZEAMX), rice (Oryza sativa, ORYSA) and soybean (Glycine max, GLYMX). Crop species included in cool season tests were wheat (Triticum aestivum, TRZAW), barley (Hordeunm vulgare, HORVX) and oilseed rape (Brassica napus, BRSNS).
Tables 15 and 16 relate to pre-emergence and PPI tests respectively on warm season species. Table 17 relates to pre-emergence tests on cool season species.

CCN(CC)C(=O)n1cnc(S(=O)(=O)C(F)F)n1 [Example 15, 1-(N,N-diethylcarbamoyl)-3-(difluoromethylsulfonyl)-1,2,4-triazole]
inhibition at 10 g/ha ([1]; Panicum miliaceum, PPI application, 10 g/ha, read-out: Percent inhibition PANMI): 10%
inhibition at 30 g/ha ([1]; Panicum miliaceum, PPI application, 30 g/ha, read-out: Percent inhibition PANMI): 70%
inhibition at 100 g/ha ([1]; Panicum miliaceum, PPI application, 100 g/ha, read-out: Percent inhibition PANMI): 99%
inhibition at 300 g/ha ([1]; Panicum miliaceum, PPI application, 300 g/ha, read-out: Percent inhibition PANMI): 100%
inhibition at 900 g/ha ([1]; Panicum miliaceum, PPI application, 900 g/ha, read-out: Percent inhibition PANMI): 100%
PPI activity GR80, PANMI [1]: 30 g/ha
inhibition at 10 g/ha (AMARE (redroot pigweed); Amaranthus retroflexus, pre-emergence application, 10 g/ha, read-out: Percent inhibition, weed AMARE): 0%
inhibition at 30 g/ha (AMARE (redroot pigweed); Amaranthus retroflexus, pre-emergence application, 30 g/ha, read-out: Percent inhibition, weed AMARE): 0%
inhibition at 100 g/ha (AMARE (redroot pigweed); Amaranthus retroflexus, pre-emergence application, 100 g/ha, read-out: Percent inhibition, weed AMARE): 0%
inhibition at 300 g/ha (AMARE (redroot pigweed); Amaranthus retroflexus, pre-emergence application, 300 g/ha, read-out: Percent inhibition, weed AMARE): 40%
inhibition at 900 g/ha (AMARE (redroot pigweed); Amaranthus retroflexus, pre-emergence application, 900 g/ha, read-out: Percent inhibition, weed AMARE): 95%
Pre-emergence activity (GR80) AMARE (AMARE (redroot pigweed); GR80 = lowest tested rate (300, 100, 30, 10 g/ha) with 80% or greater inhibition, approx. 14 days after treating, 30/21° C.): 30 g/ha
inhibition at 10 g/ha (ECHCG (barnyardgrass); Echinochloa crus-galli, pre-emergence application, 10 g/ha, read-out: Percent inhibition, weed ECHCG): 0%
inhibition at 30 g/ha (ECHCG (barnyardgrass); Echinochloa crus-galli, pre-emergence application, 30 g/ha, read-out: Percent inhibition, weed ECHCG): 0%
inhibition at 100 g/ha (ECHCG (barnyardgrass); Echinochloa crus-galli, pre-emergence application, 100 g/ha, read-out: Percent inhibition, weed ECHCG): 20%
inhibition at 300 g/ha (ECHCG (barnyardgrass); Echinochloa crus-galli, pre-emergence application, 300 g/ha, read-out: Percent inhibition, weed ECHCG): 60%
inhibition at 900 g/ha (ECHCG (barnyardgrass); Echinochloa crus-galli, pre-emergence application, 900 g/ha, read-out: Percent inhibition, weed ECHCG): 70%
Pre-emergence activity (GR80) ECHCG (ECHCG (barnyardgrass)): 100 g/ha
PPI activity (GR80) POROL (POROL (common purslane) [2]): 100 g/ha
Pre-emergence activity (GR80) POROL (POROL (common purslane) [3]): 100 g/ha
inhibition at 10 g/ha (SOLNI (black nightshade) [4]; Solanum nigrum, PPI application, 10 g/ha, read-out: Percent inhibition SOLNI): 0%
inhibition at 30 g/ha (SOLNI (black nightshade) [4]; Solanum nigrum, PPI application, 30 g/ha, read-out: Percent inhibition SOLNI): 0%
inhibition at 100 g/ha (SOLNI (black nightshade) [4]; Solanum nigrum, PPI application, 100 g/ha, read-out: Percent inhibition SOLNI): 20%
inhibition at 300 g/ha (SOLNI (black nightshade) [4]; Solanum nigrum, PPI application, 300 g/ha, read-out: Percent inhibition SOLNI): 100%
inhibition at 900 g/ha (SOLNI (black nightshade) [4]; Solanum nigrum, PPI application, 900 g/ha, read-out: Percent inhibition SOLNI): 99%
PPI activity (GR80) SOLNI (SOLNI (black nightshade) [4]): 100 g/ha
PPI activity (GR80) CHEAL [5]: 100 g/ha
Pre-emergence activity (GR80) SOLNI (SOLNI (black nightshade) [6]): 100 g/ha
inhibition at 10 g/ha (SOLNI (black nightshade) [6]; Solanum nigrum, pre-emergence application, 10 g/ha, read-out: Percent inhibition, weed SOLNI): 0%
inhibition at 30 g/ha (SOLNI (black nightshade) [6]; Solanum nigrum, pre-emergence application, 30 g/ha, read-out: Percent inhibition, weed SOLNI): 0%
inhibition at 100 g/ha (SOLNI (black nightshade) [6]; Solanum nigrum, pre-emergence application, 100 g/ha, read-out: Percent inhibition, weed SOLNI): 0%
inhibition at 300 g/ha (SOLNI (black nightshade) [6]; Solanum nigrum, pre-emergence application, 300 g/ha, read-out: Percent inhibition, weed SOLNI): 0%
inhibition at 900 g/ha (SOLNI (black nightshade) [6]; Solanum nigrum, pre-emergence application, 900 g/ha, read-out: Percent inhibition, weed SOLNI): 0%
PPI activity (GR80) CIRAR [7]: 100 g/ha

C=C(CC(F)(F)S(=O)(=O)c1ncn(C(=O)N(CC)CC)n1)C[Si](C)(C)C [Example 20]
Percent inhibition PANMI ([1]; PPI application, 10 g/ha): 0%
Percent inhibition PANMI ([1]; PPI application, 30 g/ha): 20%
Percent inhibition PANMI ([1]; PPI application, 100 g/ha): 100%
Percent inhibition PANMI ([1]; PPI application, 300 g/ha): 65%
Percent inhibition PANMI ([1]; PPI application, 900 g/ha): 100%
PPI activity GR80, PANMI [1]: 100 g/ha
Pre-emergence activity (GR80) ECHCG (ECHCG (barnyardgrass)): 300 g/ha
PPI activity (GR80) POROL (POROL (common purslane) [2]): 100 g/ha
Pre-emergence activity GR80, GALAP [8]: [empty]
Pre-emergence activity (GR80) POROL (POROL (common purslane) [3]): 300 g/ha
Percent inhibition BRSNS (oilseed rape (BRSNS); 10 g/ha): 0%
Percent inhibition BRSNS (oilseed rape (BRSNS); 30 g/ha): 20%
Percent inhibition BRSNS (oilseed rape (BRSNS); 100 g/ha): 20%
Percent inhibition BRSNS (oilseed rape (BRSNS); 300 g/ha): 60%
Percent inhibition BRSNS (oilseed rape (BRSNS); 900 g/ha): 95%
Percent inhibition SOLNI (SOLNI (black nightshade) [4]; PPI application, 10 g/ha): 0%
Percent inhibition SOLNI (SOLNI (black nightshade) [4]; PPI application, 30 g/ha): 0%
Percent inhibition SOLNI (SOLNI (black nightshade) [4]; PPI application, 100 g/ha): 0%
Percent inhibition SOLNI (SOLNI (black nightshade) [4]; PPI application, 300 g/ha): 30%
Percent inhibition SOLNI (SOLNI (black nightshade) [4]; PPI application, 900 g/ha): 100%
PPI activity (GR80) SOLNI (SOLNI (black nightshade) [4]): 100 g/ha
PPI activity (GR80) CHEAL [5]: 30 g/ha
Pre-emergence activity (GR80) SOLNI (SOLNI (black nightshade) [6]): 100 g/ha
PPI activity (GR80) CIRAR [7]: 100 g/ha
